≈ marks a conversion by molar mass, not a printed value. Non-standard residues stand in square brackets, D forms with d. Residues, ends and D or L forms follow the SMILES beside them. Phe(3,4-F2) = N[C@@H](Cc1ccc(F)c(F)c1)C(=O)O; Phe(4-F) = N[C@@H](Cc1ccc(F)cc1)C(=O)O; 2Nal = N[C@@H](Cc1ccc2ccccc2c1)C(=O)O; Nle = CCCC[C@H](N)C(=O)O
What was measured:
[1] = tested on: Staphylococcus aureus (NRS 384); assay: microbe, parasite or virus in culture; format: cell-based
Description: According to the Standards of Clinical and Laboratory Standards Institute (CLSI) of the USA for antimicrobial drug susceptibility test operation standards, a micronutrient serial twofold dilution method was used to determine minimum inhibitory concentrations (MICs) of all 60 peptides (S/N: LV-1˜LV-60) against Staphylococcus aureus (NRS 384). The experiment was repeated 5 times in parallel. […] An antibacterial drug Levofloxacin and an AMP Cbf-K16 (sequence of Cbf-K16: […]) were used as positive controls to evaluate the antibacterial effect of the antimicrobial peptides on Staphylococcus aureus (NRS 384).

[2] = tested on: Staphylococcus aureus (NRS 384); settings: 37° C., 3 h
Experimental: Trypsin (250 U/mg, pH=8.0) and AMPs (LV-1 to LV-30) were mixed in a ratio of 1:10 (w/w) and added to a reaction buffer (0.2 M sodium phosphate, 1 mM CaCl2), pH 7.5), and then incubated at 37° C. for 3 h.

[3] = tested on: Methicillin-resistant Staphylococcus aureus (MRSA); format: in vivo, ICR mice; settings: topical formulation 1 mg/mL, 0.1 mL twice a day for 4 days, mouse back skin infection
Experimental: (§1) Both female and male ICR mice were used in the test, half of the female and male mice were taken and randomly assigned into groups, with 10 mice in each group, and kept in separate cages. The mice were divided into a blank group, a model group, a positive control Methicillin group, and topical formulation groups of AMPs LV-1 to LV-30. Suspensions of Methicillin-sensitive Staphylococcus aureus (NRS 384) and Methicillin-resistant Staphylococcus aureus (MRSA) were prepared, and their concentrations were adjusted to a concentration of 5×10^6 CFU/mL for subsequent use. Hair on backs of the mice was shaved with a shaver, wound was created on back skin of each mouse using a biopsy punch, and the wound was then infected with Methicillin-sensitive Staphylococcus aureus and Methicillin-resistant Staphylococcus aureus (0.1 mL, 5×10^6 CFU/mL) to establish infection models. Except for the blank group and the model group, all other groups received corresponding topical formulations applied directly to the infected areas, with a dose of 0.1 mL, twice a day for 4 consecutive days. On the day following the final administration, skin from the infected sites of each group was aseptically collected, and an antibacterial rate was calculated.

[4] = tested on: Methicillin-sensitive Staphylococcus aureus (NRS 384); format: in vivo, ICR mice; settings: topical formulation 1 mg/mL, 0.1 mL twice a day for 4 days, mouse back skin infection
Experimental: as §1

rabbit red blood cells = format: cell-based; settings: red cells of rabbit, 1 h
Experimental: Fresh rabbit blood ([…]) was collected and centrifuged at 500 g for 5 min, a supernatant was discarded, and red blood cells were repeatedly washed with phosphate-buffered saline (PBS, 0.01 M, pH 7.4) until the supernatant was clear. The red blood cells (RBCs) were resuspended to 10 mL, and diluted 25-fold with PBS (0.01 M, pH 7.4) to prepare a red blood cell suspension with a concentration of about 2×10^8 RBC/mL. The AMPs were subjected to gradient dilution with normal saline (0.85%, w/v, NaCl) according to a multiple dilution method, final concentrations of the SMPs were 1.95, 3.9, 7.8, 15.6, 31.3, 62.5, 125, 250, 500, 1000, and 2000 μg/mL. 100 μl of polypeptide solution was taken and added to a 96-well plate with 5 replicates for each concentration; 100 μl of rabbit blood with a red blood cell count of about 2×10^8 RBC/mL was then added to each well, the plate was incubated at 37° C. for 1 h, centrifuged at 500 g for 5 min, 100 μl of supernatant was taken and transferred to a new 96-well plate, and an optical density (OD) at a wavelength of 541 nm was measured using a microplate reader. Triton X-100 (10 mg/mL as a starting concentration, two-fold gradient dilution) was used as a positive control group. A hemolysis rate was calculated using the following formula: Hemolysis rate (%)=[(OD541 of experimental group-OD541 of negative control group)/(OD541 of positive control group−OD541 of negative control group)]×100% Specific results of the hemolysis test are shown in Table 6. Minimum hemolytic concentration (MHC): a lowest drug concentration that can cause 10% hemolysis.

Molecule | MIC against Staphylococcus aureus (NRS 384) ([1]; NRS 384) [µg/mL] | MHC (minimum hemolytic concentration, lowest concentration causing 10% hemolysis) (rabbit red blood cells) [µg/mL] | also measured
KFFRKLKKSVKKRAKKFFKKPRVIGVSIPF [Cbf-K16, reference compound] | – | – | MIC against Staphylococcus aureus (NRS 384) ([1]; Staphylococcus aureus (NRS 384)): 32 µg/mL; Trypsin MIC ([2]; MIC vs Staphylococcus aureus (NRS 384) after trypsin treatment 1:10 (w/w)): >128 µg/mL; MIC values after trypsin treatment ([2]; trypsin:AMP 1:10 (w/w), Staphylococcus aureus (NRS 384)): lost its antimicrobial activity
COc1cccc(OC)c1C(=O)N[C@@H]1C(=O)N2[C@@H]1SC(C)(C)[C@@H]2C(=O)O [Methicillin, reference compound] | – | – | Inhibition rate against Methicillin-resistant Staphylococcus aureus (%) [3]: 1.05%; Inhibition rate against Methicillin-sensitive Staphylococcus aureus (%) [4]: 84.83%
CC(=O)N[C@@H](CCCNC(=N)N)C(=O)N[C@@H](CCCCN)C(=O)N[C@@H](CC(C)C)C(=O)N[C@@H](CC(C)C)C(=O)N[C@@H](Cc1ccc2ccccc2c1)C(=O)N[C@@H](CCCNC(=N)N)C(=O)N[C@@H](CC(C)C)C(=O)N[C@@H](CCCCN)C(=O)N[C@@H](Cc1ccccc1)C(=O)N[C@@H](CCCNC(=N)N)C(=O)N[C@@H](CCCCN)C(N)=O [LV-34] (Ac-RKLL[2Nal]RLKFRK-NH2) | 4 (≈ 2.51 µM) | >1000 | –
CC(=O)N[C@@H](CCCNC(=N)N)C(=O)N[C@@H](CCCCN)C(=O)N[C@@H](CC(C)C)C(=O)N[C@@H](CC(C)C)C(=O)N[C@@H](Cc1ccccc1)C(=O)N[C@@H](CCCNC(=N)N)C(=O)N[C@@H](CC(C)C)C(=O)N[C@@H](CCCCN)C(=O)N[C@@H](Cc1ccc2ccccc2c1)C(=O)N[C@@H](CCCNC(=N)N)C(=O)N[C@@H](CCCCN)C(N)=O [LV-33] (Ac-RKLLFRLK[2Nal]RK-NH2) | 8 (≈ 5.01 µM) | >1000 | –
CC(=O)N[C@@H](CCCCN)C(=O)N[C@@H](CCCCN)C(=O)N[C@@H](CC(C)C)C(=O)N[C@@H](CC(C)C)C(=O)N[C@@H](Cc1ccc2ccccc2c1)C(=O)N[C@@H](CCCNC(=N)N)C(=O)N[C@@H](CC(C)C)C(=O)N[C@@H](CCCCN)C(=O)N[C@@H](Cc1ccc2ccccc2c1)C(=O)N[C@@H](CCCNC(=N)N)C(=O)N[C@@H](CCCCN)C(N)=O [LV-49] (Ac-KKLL[2Nal]RLK[2Nal]RK-NH2) | 8 (≈ 4.94 µM) | >1000 | –
CC(=O)N[C@@H](CCCNC(=N)N)C(=O)N[C@@H](CCCCN)C(=O)N[C@@H](CC(C)C)C(=O)N[C@@H](CC(C)C)C(=O)N[C@@H](Cc1ccc(F)cc1)C(=O)N[C@@H](CCCCN)C(=O)N[C@@H](CC(C)C)C(=O)N[C@@H](CCCCN)C(=O)N[C@@H](Cc1ccc(F)cc1)C(=O)N[C@@H](CCCCN)C(=O)N[C@@H](CCCNC(=N)N)C(N)=O [LV-35] (Ac-RKLL[Phe(4-F)]KLK[Phe(4-F)]KR-NH2) | 8 (≈ 5.15 µM) | >1000 | –
CC(=O)N[C@@H](CCCNC(=N)N)C(=O)N[C@@H](CCCCN)C(=O)N[C@H](C(=O)N[C@H](C(=O)N[C@@H](Cc1ccc2ccccc2c1)C(=O)N[C@@H](CCCNC(=N)N)C(=O)N[C@H](C(=O)N[C@@H](CCCCN)C(=O)N[C@@H](Cc1ccc2ccccc2c1)C(=O)N[C@@H](CCCNC(=N)N)C(=O)N[C@@H](CCCCN)C(N)=O)C(C)C)C(C)C)C(C)C [LV-46] (Ac-RKVV[2Nal]RVK[2Nal]RK-NH2) | 4 (≈ 2.49 µM) | >1000 | –
CC(=O)N[C@@H](CCCNC(=N)N)C(=O)N[C@@H](CCCCN)C(=O)N[C@@H](CC(C)C)C(=O)N[C@@H](CC(C)C)C(=O)N[C@@H](Cc1ccc2ccccc2c1)C(=O)N[C@@H](CCCNC(=N)N)C(=O)N[C@@H](CC(C)C)C(=O)N[C@@H](CCCCN)C(=O)N[C@@H](Cc1ccc2ccccc2c1)C(=O)N[C@@H](CCCNC(=N)N)C(=O)N[C@@H](CCCNC(=N)N)C(N)=O [LV-52] (Ac-RKLL[2Nal]RLK[2Nal]RR-NH2) | 8 (≈ 4.78 µM) | >1000 | –
CC(=O)N[C@@H](CCCNC(=N)N)C(=O)N[C@@H](CCCCN)C(=O)N[C@@H](CC(C)C)C(=O)N[C@@H](CC(C)C)C(=O)N[C@@H](Cc1ccc(F)c(F)c1)C(=O)N[C@@H](CCCCN)C(=O)N[C@@H](CC(C)C)C(=O)N[C@@H](CCCCN)C(=O)N[C@@H](Cc1ccc(F)c(F)c1)C(=O)N[C@@H](CCCCN)C(=O)N[C@@H](CCCNC(=N)N)C(N)=O [LV-36] (Ac-RKLL[Phe(3,4-F2)]KLK[Phe(3,4-F2)]KR-NH2) | 4 (≈ 2.52 µM) | >1000 | –
CCCC[C@H](NC(=O)[C@H](CCCCN)NC(=O)[C@H](CCCNC(=N)N)NC(C)=O)C(=O)N[C@@H](CCCC)C(=O)N[C@@H](Cc1ccc2ccccc2c1)C(=O)N[C@@H](CCCNC(=N)N)C(=O)N[C@@H](CCCC)C(=O)N[C@@H](CCCCN)C(=O)N[C@@H](Cc1ccc2ccccc2c1)C(=O)N[C@@H](CCCNC(=N)N)C(=O)N[C@@H](CCCCN)C(N)=O [LV-42] (Ac-RK[Nle][Nle][2Nal]R[Nle]K[2Nal]RK-NH2) | 8 (≈ 4.86 µM) | >1000 | –
CC(=O)N[C@@H](CCCNC(=N)N)C(=O)N[C@@H](CCCCN)C(=O)N[C@@H](C)C(=O)N[C@@H](C)C(=O)N[C@@H](Cc1ccc2ccccc2c1)C(=O)N[C@@H](CCCNC(=N)N)C(=O)N[C@@H](C)C(=O)N[C@@H](CCCCN)C(=O)N[C@@H](Cc1ccc2ccccc2c1)C(=O)N[C@@H](CCCNC(=N)N)C(=O)N[C@@H](CCCCN)C(N)=O [LV-45] (Ac-RKAA[2Nal]RAK[2Nal]RK-NH2) | 2 (≈ 1.32 µM) | >1000 | –

Source: patent publication US20250304620A1, “ANTIMICROBIAL PEPTIDE AND APPLICATION THEREOF” (priority 2023, published 2025)
